Assay results from PMC8308830, “Single-Agent and Fixed-Dose Combination HIV-1 Protease Inhibitor Drugs in Fission Yeast (Schizosaccharomyces pombe)” (Pathogens, 2021).
“Also recorded” adds a separate entry of the source.

Assays:
HIV-1 PR [1] = target: T1, HIV-1 PR (Human immunodeficiency virus type 1 group M subtype B, UniProt P12497); test: cell-based; settings: for decrease of EC50 of formulated drug in comparison with pure compound: fission yeast RE294, formulated drug pill vs pure compound; for EC50: PR-on RE294 cells, growth (OD650) at 72 h post-gene induction relative to PR-off cells
Method: The goal of this experiment was to determine the potency of each PI drug in fission yeast by the determination of EC50. […] Briefly, both HIV-1 PR-suppressing (PR-off) and PR-producing (PR-on) RE294 cells were prepared as described above. The PR-producing cells were added with a PI drug in the final concentration as indicated. Final cellular growth was measured at 72 h post-gene induction.
(A) Pure compound of PI drugs. (B) Formulated PI drug pills. HIV-1 PR gene expression was induced in RE294 cells, as described in Figure 2. […] Cellular growth was measured at 72 h post-gene induction by optical density of 650 nm using a spectrophotometer. EC50 curves were generated by using Prism 8 software showing averages with standard error bars. The measurements were repeated with three different experiments.
Briefly, both HIV-1 PR-suppressing (PR-off) or PR-producing (PR-on) RE294 cells were prepared as described above as control and for testing. The PR-producing cells were added with a PI drug in the final concentration as shown. Final cellular growth was measured at 72 h post-gene induction by optical density of 650 nm using a spectrophotometer.

HIV = settings: human cells, antiviral activity; per-drug references in Table 2; read-out: EC50 in Human Cell; cited from earlier work
HIV-1 PR [2] = target: T1, HIV-1 PR; format: cell-based; set-up: HIV-1 PR is a dimeric aspartyl protease that consists of two identical subunits with 99 amino acids; expressed in transfected cells; host or cells: Schizosaccharomyces pombe strain RE294; settings: 150 μM drug; PR-on RE294 cells; OD650 over 72 h; formulated single-agent and combination drugs
HIV-1 PR [3] = target: T1, HIV-1 PR; test: Fission yeast colony formation assay, wild-type HIV-1 PR (RE294 strain); format: cell-based; set-up: HIV-1 PR is a dimeric aspartyl protease that consists of two identical subunits with 99 amino acids; expressed in transfected cells; host or cells: Schizosaccharomyces pombe strain RE294; settings: 150 μM drug; PR-on RE294 cells; 4–5 days at 30 °C; pure chemical forms and formulated drug pills
Method: The effect of the above-mentioned FDA-approved PI drugs on fission yeast colony formation was tested in the presence and absence of HIV-1 PR. Specifically, a fission yeast RE294 strain, which carries a single and integrated copy of HIV-1 PR gene in the yeast chromosome, was used in this experiment. One thousand active growing and log-phase RE294 cells were evenly spread and cultured on the six-well agar wells containing the minimal and selective PMG medium in presence of 20 µM of thiamine (PR-off) or absence of thiamine (PR-on) with incubation at 30 °C for 4–5 days. […] To test the effect of a PI drug on the colony formation, 150 μM of each drug was added to the respective agar well in the presence of HIV-1 PR. Since all those drugs were dissolved in dimethyl sulfoxide (DMSO), to test the potential DMSO effect on the yeast colony formation, DMSO in the final concentration of 1% was added to the PR-on well as a mock control (Figure 2A). […]
A modified fission yeast colony-formation assay was used to investigate the effect of the PR gene expression on fission yeast cell proliferation from previously described protocol. […] The inhibitory effect of each FDA PI drug on yeast colony formation was evaluated 4–5 days after plating by comparing the growth of the colonies of the drug-treated wells to that of the mock DMSO controls.

HIV-1 PR [4] = target: T1, HIV-1 PR; settings: 150 μM drug; G31 cells; 20 h post-gene induction
[5] = EC50 in Fission Yeast /Pure Compound, pure compound
[6] = EC50 in Fission Yeast /Drug Formulation, compounds in drug pill forms

Compound: CC(C)CN(C[C@@H](O)[C@H](Cc1ccccc1)NC(=O)O[C@H]1CO[C@H]2OCC[C@H]21)S(=O)(=O)c1ccc(N)cc1 [DRV, Darunavir]
- decrease of EC50 of formulated drug in comparison with pure compound (HIV-1 PR [1]): 28.5%
- EC50 (HIV): 1 to 10 nM

Compound: CC(C)(C)NC(=O)[C@@H]1C[C@@H]2CCCC[C@@H]2CN1C[C@@H](O)[C@H](Cc1ccccc1)NC(=O)[C@H](CC(N)=O)NC(=O)c1ccc2ccccc2n1 [SQV, Saquinavir]
- EC50 (HIV): 5 to 25 nM

Compound: CCC[C@@]1(CCc2ccccc2)CC(O)=C([C@H](CC)c2cccc(NS(=O)(=O)c3ccc(C(F)(F)F)cn3)c2)C(=O)O1 [TPV, Tipranavir]
- EC50 (HIV-1 PR [1]; [5]): 7060 ± 320 nM
- EC50 (HIV): 30 to 70 nM

Compound: Cc1cccc(C)c1OCC(=O)N[C@@H](Cc1ccccc1)[C@@H](O)C[C@H](Cc1ccccc1)NC(=O)[C@H](C(C)C)N1CCCNC1=O [LPV, Lopinavir]
- EC50 (HIV): 4 to 11 nM

Compound: CC(C)CN(C[C@@H](OP(=O)(O)O)[C@H](Cc1ccccc1)NC(=O)O[C@H]1CCOC1)S(=O)(=O)c1ccc(N)cc1 [FPV, Fosamprenavir]
- EC50 (HIV-1 PR [1]; [6]): > 150000 nM
- inhibitory activity against the HIV-1 PR in fission yeast (HIV-1 PR [1]; wild-type PR, fission yeast): no inhibitory activity; also recorded: did not show any inhibitory effect
- suppression of HIV-1 PR-induced growth arrest, formulated drug pills (HIV-1 PR [2]): did not suppress
- suppression of the inhibitory effect of HIV-1 PR on colony formation (HIV-1 PR [3]): did not suppress
- inhibition of HIV-1 PR proteolytic cleavage of GFP-MA↓CA-Vpr (Vpr pattern vs GFP pattern) (HIV-1 PR [4]): no suppression

Compound: CC(C)(C)NC(=O)[C@@H]1CN(Cc2cccnc2)CCN1C[C@@H](O)C[C@@H](Cc1ccccc1)C(=O)N[C@H]1c2ccccc2C[C@H]1O [IDV, Indinavir]
- EC50 (HIV): 5 to 30 nM

Compound: Cc1c(O)cccc1C(=O)N[C@@H](CSc1ccccc1)[C@H](O)CN1C[C@H]2CCCC[C@H]2C[C@H]1C(=O)NC(C)(C)C [NFV, Nelfinavir]
- EC50 (HIV-1 PR [1]; [5]): 9700 ± 340 nM
- EC50 (HIV): 3 to 40 nM

Compound: COC(=O)N[C@H](C(=O)N[C@@H](Cc1ccccc1)[C@@H](O)CN(Cc1ccc(-c2ccccn2)cc1)NC(=O)[C@@H](NC(=O)OC)C(C)(C)C)C(C)(C)C [ATV, Atazanavir]
- EC50 (HIV-1 PR [1]; [6]): 16300 ± 950 nM
- EC50 (HIV-1 PR [1]; [5]): 21080 ± 70 nM
- decrease of EC50 of formulated drug in comparison with pure compound (HIV-1 PR [1]): 22.5%
- EC50 (HIV): 2 to 5 nM

Compound: CC(C)c1nc(CN(C)C(=O)N[C@H](C(=O)N[C@@H](Cc2ccccc2)C[C@H](O)[C@H](Cc2ccccc2)NC(=O)OCc2cncs2)C(C)C)cs1 [RTV, Ritonavir]
- decrease of EC50 of formulated drug in comparison with pure compound (HIV-1 PR [1]): 38.9%
- EC50 (HIV): 40 to 100 nM

Compound: CC(C)CN(C[C@@H](O)[C@H](Cc1ccccc1)NC(=O)O[C@H]1CCOC1)S(=O)(=O)c1ccc(N)cc1 [APV, Amprenavir]
- EC50 (HIV-1 PR [1]; [5]): 55400 ± 3180 nM
- EC50 (HIV): 15 to 60 nM
